The test system of series [1] is HBV. The series is described as follows: microbe, parasite or virus in culture. The conditions noted are these: Hepatitis B virus, HepG2 2.2.15, 288 h, read-out: IC50 against Anti-HBV.
Series [2] is described as follows: Cytotoxicity in MT-4 cells. The class given is cell-based. The conditions noted are these: human.
Series [3] concerns HIV-1NL4-3.
The test system of series [4] is HBV. As to conditions: HepG2 2.2.15 cells.
Series [5] in a line: in vitro. In kind it is cell-based. The conditions noted are these: human.
The test system of series [6] is HepG2 cells. In kind it is cell-based. As to conditions: up to 100 μM.

For orientation: IC50 means the point on the concentration scale where inhibition reaches its midpoint. One may read the CC50 as the concentration at which the toxic effect on the cells reaches its halfway point. Read a high CC50 as better tolerance by the cells.

The structures appear in SMILES notation. Structures can show the parent of a compound that is named as a salt. Where two headings read alike, the source gives them in different places.

Consider `Nc1ccn([C@@H]2CS[C@H](CO)O2)c(=O)n1` [3TC, lamivudine], for which the IC50 in series [1] worked out at 0.03 ± 0.01 µM. Besides, the 50% cytotoxic concentration (CC50) in series [2] and in series [5] was above 100 µM each time. Besides, in series [3] (MT-4 cells), the “S.I. with Anti-HIV-1 (CC50/IC50)” value is above 340. Also, the “S.I. with Anti-HBV (CC50/IC50)” value in series [4] is given as > 3,300.
`Nc1nc(NC2CC2)c2ncn([C@H]3C=C[C@@H](CO)C3)c2n1` [ABC, abacavir]: the 50% inhibitory concentration (IC50) in series [1] is 3.9 ± 1 µM. Moreover, the CC50 in series [2] and in series [5] was above 100 µM in each case. Also, the “S.I. with Anti-HIV-1 (CC50/IC50)” value in series [3] (MT-4 cells) is above 170. For the same compound, in series [4], the “S.I. with Anti-HBV (CC50/IC50)” value is listed as above 26.
Regarding `Cc1cn([C@H]2C[C@H](N=[N+]=[N-])[C@@H](CO)O2)c(=O)[nH]c1=O` [AZT, 3′-azido-3′-deoxythymidine], the IC50 in series [1] is above 100 µM. For the same compound, the half-maximal cytotoxic concentration (CC50) in series [2] is 30.5 ± 3.1 µM; in series [5] it was above 100 µM. In series [3] (MT-4 cells), the “S.I. with Anti-HIV-1 (CC50/IC50)” value is 1,020.
For the compound `C#C[C@@]1(CO)C=C[C@H](n2cc(C)c(=O)[nH]c2=O)O1` [Ed4T, 2′,3′-didehydro-3′-deoxy-4′-ethynylthymidine], the IC50 in series [1] is above 100 µM. The 50% cytotoxic concentration (CC50) in series [2] and in series [5] was above 100 µM throughout. For the same compound, in series [3] (MT-4 cells), the “S.I. with Anti-HIV-1 (CC50/IC50)” value is given as above 380.
Take `Cc1cn([C@@H]2C[C@@H](O)[C@H](CO)O2)c(=O)[nH]c1=O` [LdT, telbivudine]: in series [1], the half-inhibitory concentration (IC50) turned out to be 0.007 ± 0.001 µM. In addition, the CC50 in series [2] and in series [5] was above 100 µM each time. The “S.I. with Anti-HBV (CC50/IC50)” value in series [4] is on record as > 14,000.
For `CC(C)OC(=O)OCOP(=O)(CO[C@H](C)Cn1cnc2c(N)ncnc21)OCOC(=O)OC(C)C` [TDF, tenofovir disoproxil fumarate], the IC50 in series [1] was determined as 0.04 ± 0.01 µM. Also, the half-maximal cytotoxic concentration (CC50) in series [2] (MT-4 cells) was 40.4 ± 11.3 µM; in series [5] it was above 100 µM. Moreover, the “S.I. with Anti-HIV-1 (CC50/IC50)” value in series [3] (MT-4 cells) stood at 70. For the same compound, the “S.I. with Anti-HBV (CC50/IC50)” value in series [4] was > 2,500.
For `Cc1cn([C@H]2C=C[C@@H](CO)O2)c(=O)[nH]c1=O` [d4T, 2′,3′-didehydro-3′-deoxythymidine], in series [1], the IC50 was above 100 µM. Besides, the CC50 in series [2] and in series [5] was above 100 µM throughout. Moreover, in series [3], the “S.I. with Anti-HIV-1 (CC50/IC50)” value is given as above 150.
As to `Nc1ccn([C@H]2CC[C@@H](CO)O2)c(=O)n1` [ddC, 2′,3′-dideoxycytidine], the “mtDNA synthesis / mtDNA levels” value in series [6] (12 days culture, real-time mtDNA-PCR) is “significantly decreased mtDNA synthesis at 1 μM and beyond”. Also, the “L-lactate levels in culture medium” value in series [6] (12 days culture) is listed as “without causing any significant decrease in L-lactate amounts or viable cell numbers”. For the same compound, in series [6] (day 5 of culture), the “viable cell numbers (MTT assay)” value was “without causing any significant decrease in L-lactate amounts or viable cell numbers”. For the same compound, the IC50 in series [1] came to 0.75 ± 0.12 µM. Further, the CC50 in series [2] (MT-4 cells) and in series [5] was above 100 µM throughout. In addition, the “S.I. with Anti-HIV-1 (CC50/IC50)” value in series [3] (MT-4 cells) was above 300. Also, the “S.I. with Anti-HBV (CC50/IC50)” value in series [4] is recorded as above 130.
For the compound `OC[C@@H]1CC[C@H](n2cnc3c(O)ncnc32)O1` [ddI, 2′,3′-dideoxyinosine], the half-maximal inhibitory concentration (IC50) in series [1] came to 3.7 ± 0.7 µM. For the same compound, the CC50 in series [2] and in series [5] was above 100 µM throughout.

These data come from PMC4589464 (Hepatology (Baltimore, Md.), 2015).
